# Patent US20240400584A1, “COMPOUNDS AND METHODS FOR MODULATING SPLICING” (REMIX THERAPEUTICS INC., priority 2021, published 2024)
# Key:
# Target C = assay: Gene panel canonical junction qPCR assay, Target C CJ mRNA (Table 7); format: cell-based, human; details: Homo sapiens, read-out: Target C CJ mRNA decrease IC50
# How it was run: (§1)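 Canonical-junction transcript levels are quantified by RT-qPCR after compound treatment of K562 or A673 cells. Primers or a CY5 probe overlap the exon junction; signals are normalized to GAPDH, GUSB or PPIA and to DMSO, then scaled to a set ΔCt assay window and fitted for IC50.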
# MYB [1] = assay: RT-qPCR splicing assay, MYB AJ/CJ mRNA; format: cell-based; details: Homo sapiens, A673 or K562 cells, 24 hours; for IC50: decrease in canonical junction mRNA; for AC50: increase in alternative junction mRNA
# How it was run: (§2)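 A673 or K562 cells were treated for 24 h at 37° C with an 11-point 3-fold compound series (top 10 uM, DMSO ≤0.25%). Lysates underwent RT-qPCR for the canonical (CJ) and alternative-exon (AJ) junctions, normalized to GAPDH, GUSB or PPIA, then to DMSO (ΔΔCt), giving RQ and percentage response.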
# SMN2 = assay: Gene panel canonical junction qPCR assay, SMN2 CJ mRNA (Table 7); format: cell-based; details: Homo sapiens, read-out: SMN2 CJ mRNA decrease IC50
# How it was run: as §1
# HTT [2] = assay: RT-qPCR splicing assay, HTT AJ/CJ mRNA; format: cell-based, human; details: Homo sapiens, 24 h, A673 or K562 cells; for IC50: decrease in canonical junction mRNA; for AC50: increase in alternative junction mRNA
# How it was run: as §2
# HTT [3] = assay: Gene panel canonical junction qPCR assay, HTT CJ mRNA (Table 7); format: cell-based, human; details: Homo sapiens, read-out: HTT CJ mRNA decrease IC50
# How it was run: as §1
# MYB [4] = assay: Gene panel canonical junction qPCR assay, MYB CJ mRNA (Table 7); format: cell-based; details: Homo sapiens, read-out: MYB CJ mRNA decrease IC50
# How it was run: as §1
Structure (SMILES),IC50 (Target C) [nM],IC50 (MYB [1]) [nM],AC50 (MYB [1]) [nM],IC50 (SMN2) [nM],IC50 (HTT [2]) [nM],AC50 (HTT [2]) [nM],IC50 (HTT [3]) [nM],IC50 (MYB [4]) [nM]
"FC1(F)CC2CC(Nc3ccc4c(n3)OCc3cc(-n5nccn5)ccc3-4)CC1N2 (centres unmarked) [Compound 238, 6,6-difluoro-N-[8-(1,2,3-triazol-2-yl)-6H-isochromeno[3,4-b]pyridin-3-yl]-8-azabicyclo[3.2.1]octan-3-amine]",1000 to 10000,1000 to 10000,1000 to 10000,1000 to 10000,100 to 1000,1000 to 10000,100 to 1000,1000 to 10000
"CN(c1ccc2c(n1)OCc1cc(-n3nccn3)ccc1-2)C1CC2CC(F)(F)C(C1)N2 (centres unmarked) [Compound 239, 6,6-difluoro-N-methyl-N-[8-(1,2,3-triazol-2-yl)-6H-isochromeno[3,4-b]pyridin-3-yl]-8-azabicyclo[3.2.1]octan-3-amine]",1000 to 10000,1000 to 10000,1000 to 10000,100 to 1000,100 to 1000,1000 to 10000,100 to 1000,1000 to 10000
"COc1cc(-c2ccc3c(c2)COc2nc(NC4CC5CC(F)(F)C(C4)N5)ccc2-3)cnn1 (centres unmarked) [Compound 240, 6,6-difluoro-N-[8-(6-methoxypyridazin-4-yl)-6H-isochromeno[3,4-b]pyridin-3-yl]-8-azabicyclo[3.2.1]octan-3-amine]",100 to 1000,1000 to 10000,1000 to 10000,100 to 1000,< 100,100 to 1000,< 100,1000 to 10000
"FC1(F)CC2CC(Nc3ccc4c(n3)OCc3cc(-c5cn[nH]c5)ccc3-4)CC1N2 (centres unmarked) [Compound 241, 6,6-difluoro-N-[8-(1H-pyrazol-4-yl)-6H-isochromeno[3,4-b]pyridin-3-yl]-8-azabicyclo[3.2.1]octan-3-amine]",1000 to 10000,1000 to 10000,1000 to 10000,1000 to 10000,1000 to 10000,1000 to 10000,1000 to 10000,1000 to 10000
COc1cc(-c2cc3c(cc2F)-c2ccc(N(C)[C@@H]4C[C@H]5CC[C@@H](C4)N5)nc2OC3)cnn1 [Compound 242],< 100,1000 to 10000,< 100,< 100,< 100,< 100,< 100,100 to 1000
COc1cc(-c2cc3c(cc2F)-c2ccc(O[C@@H]4C[C@H]5CC[C@@H](C4)N5)nc2OC3)cnn1 [Compound 243],100 to 1000,100 to 1000,100 to 1000,< 100,< 100,< 100,< 100,100 to 1000
COc1cc(-c2cc3c(cc2F)-c2ccc(OC4CC(C)(C)NC(C)(C)C4)nc2OC3)cnn1 [Compound 244],100 to 1000,100 to 1000,100 to 1000,100 to 1000,100 to 1000,< 100,100 to 1000,100 to 1000
"COc1cc(-c2ccc3c(c2F)COc2nc(N(C)[C@@H]4C[C@H]5CC[C@@H](C4)N5)ccc2-3)cnn1 [Compound 245, N-((1R,3s,5S)-8-azabicyclo[3.2.1]octan-3-yl)-7-fluoro-8-(6-methoxypyridazin-4-yl)-N-methyl-6H-isoch-romeno[3,4-b]pyridin-3-amine]",< 100,< 100,< 100,< 100,< 100,< 100,< 100,< 100
COc1cc(-c2ccc3c(c2)COc2nc(N(C)[C@H]4C[C@H]5COC[C@@H](C4)N5)ccc2-3)cnn1 [Compound 246],> 10000,> 10000,1000 to 10000,1000 to 10000,> 10000,> 10000,> 10000,> 10000
"COc1cc(-c2ccc3c(c2)COc2nc(N(C)[C@H]4C[C@@H]5CC(F)(F)[C@H](C4)N5)ccc2-3)cnn1 [Compound 247, (1R,3S,5S)-6,6-difluoro-N-[8-(6-methoxypyridazin-4-yl)-6H-isochromeno[3,4-b]pyridin-3-yl]-N-methyl-8-azabicyclo[3.2.1]octan-3-amine]",100 to 1000,100 to 1000,> 10000,< 100,< 100,< 100,< 100,100 to 1000
